According to the supplement of paper PMC11061612:

Assays:
Test in all cases: combination Emax (second highest fraction inhibited in the dose matrix, 72 h); higher = more inhibition; extreme values may be limits of the assay
[1] = tested on: NCI-H727 (Other Solid Carcinomas)
Outline: (§1)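 Cell lines in DMEM/F12 or RPMI with 10% FBS were plated in 1536-well plates, held 24 hours at 37°C, 5% CO2, then given two-drug dose matrices for 72 hours (DMSO typically 0.2%). Viability was read by CellTiter-Glo 2.0 luminescence and scaled as inhibition from 0 (vehicle wells) to 1 (blank wells). Combination Emax is the second-highest inhibition in the matrix; Bliss excess is observed combination effect minus expected EA + EB − EA·EB, EA and EB being single-agent effects.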

[2] = tested on: NUGC-3 (Gastric Carcinoma)
Outline: as §1

[3] = tested on: HGC-27 (Gastric Carcinoma)
Outline: as §1

[4] = tested on: Caov-4 (Ovarian Carcinoma)
Outline: as §1

[5] = tested on: BT-549 (Breast Carcinoma)
Outline: as §1

[6] = tested on: AMO-1 (Plasma Cell Myeloma)
Outline: as §1

[7] = tested on: VA-ES-BJ (Other Solid Carcinomas)
Outline: as §1

UACC-62 (Melanoma) = tested on: UACC-62 (Melanoma)
Outline: as §1

[8] = tested on: NCI-H1915 (Non-Small Cell Lung Carcinoma)
Outline: as §1

PWR-1E (Non-Cancerous) = tested on: PWR-1E (Non-Cancerous)
Outline: as §1

YH-13 (Glioblastoma) = tested on: YH-13 (Glioblastoma)
Outline: as §1

NB69 (Neuroblastoma) = tested on: NB69 (Neuroblastoma)
Outline: as §1

[9] = tested on: KARPAS-299 (T-Cell Non-Hodgkin's Lymphoma)
Outline: as §1

[10] = tested on: OVCAR-4 (Ovarian Carcinoma)
Outline: as §1

[11] = tested on: MLMA (Other Blood Carcinomas)
Outline: as §1

[12] = tested on: PANC-04-03 (Pancreatic Carcinoma)
Outline: as §1

[13] = tested on: EoL-1-cell (Acute Myeloid Leukemia)
Outline: as §1

[14] = tested on: KMOE-2 (Acute Myeloid Leukemia)
Outline: as §1

[15] = tested on: RF-48 (B-Cell Non-Hodgkin's Lymphoma)
Outline: as §1

[16] = tested on: MIA-PaCa-2 (Pancreatic Carcinoma)
Outline: as §1

With `COc1cccc(OCCCN)c1-c1cc(Nc2cnc(C#N)cn2)n[nH]1` [Prexasertib] + CCc1c2c(nc3ccc(O)cc13)-c1cc3c(c(=O)n1C2)COC(=O)[C@]3(O)CC [SN-38] (first compound max 1 µM, 7x7, partner max 0.3 µM) the “combination Emax” value [1] was 0.696, the “combination Emax” value [2] was 0.976 and the “combination Emax” value [3] was 0.994. For the same compound, the “combination Emax” value [4] was 1, the “combination Emax” value [5] was 0.864 and the “combination Emax” value [6] was 0.968. For the same compound, the “combination Emax” value [7] was 0.914, the “combination Emax” value (UACC-62 (Melanoma)) was 0.817 and the “combination Emax” value [8] was 0.89. For the same compound, the “combination Emax” value (PWR-1E (Non-Cancerous)) was 1, the “combination Emax” value (YH-13 (Glioblastoma)) was 0.862 and the “combination Emax” value (NB69 (Neuroblastoma)) was 1. For the same compound, the “combination Emax” value [9] was 0.992, the “combination Emax” value [10] was 0.9 and the “combination Emax” value [11] was 0.948. The “combination Emax” value [12] was 0.625, the “combination Emax” value [13] was 0.996 and the “combination Emax” value [14] was 0.999. For the same compound, the “combination Emax” value [15] was 0.804 and the “combination Emax” value [16] was 0.999.
